From patent US20080175900A1, “PHARMACEUTICAL FORMULATIONS OF AN ANHYDRATE CRYSTAL FORM OF 2-(3-FLUORO-4-HYDROXYPHENYL)-7-VINYL-1,3-BENZOXAZOL-5-OL” (WYETH, priority 2006, published 2008)

Test: Conversion of the crystal form when suspended and stirred in a solvent at room temperature
Type: physicochemical
Excerpt: The anhydrate crystal form (Form B) can be converted to other crystal forms under suitable conditions. […] 6, 2006).

## C=Cc1cc(O)cc2nc(-c3ccc(O)c(F)c3)oc12 [Form B, 2-(3-fluoro-4-hydroxyphenyl)-7-vinyl-1,3-benzoxazol-5-ol]
Suspended and stirred in ethanol at room temperature for three days
  crystal form obtained after suspending and stirring in ethanol: another anhydrate crystal form is obtained
Suspended and stirred in methanol at room temperature for one day
  crystal form obtained after suspending and stirring in methanol: another anhydrate crystal form is obtained
Suspended and stirred in water at room temperature for three days
  crystal form obtained after suspending and stirring in water: a hydrate crystal form is obtained
